Patent US7361664B2, “Vitamin D receptor antagonists and related compositions and methods of use” (The United States of America as represented by the …, priority 2001, dated 2008)

Assays:
[1] = tested on: MCF-7 cells; test: In vivo inhibition of advanced stage tumor growth; parameters: species or system athymic nude mice; conditions: 2 mg/kg on alternate days, day 35, estrogen pellets
Protocol: MCF-7 cells were injected with Matrigel (10 mg/ml) into 7 weeks old female athymic nude mice (10 mice/treatment group). Tumors were grown in the presence of implanted estrogen pellets (0.72 mg pellets). Four weeks after inoculation, mice were treated for 5 weeks with hormones or vehicle (propylene glycol) on alternate days. BCA11 was added at a concentration of 1 μg/kg and Tamoxifen was added at a concentration of 2 mg/kg.

[2] = tested on: MCF-7 cells; test: [3H]-Thymidine incorporation assay; assay type: cell-based, human; conditions: for effect on MCF-7 cell proliferation ([3H]-thymidine incorporation): 3 days treatment, FIG. 2 and 3
Protocol: MCF-7 cells (10,000 cells/well) were subcultured in 24 well plates and treated with hormone for 3 days in graded concentrations (FIG. 2). For the last 12 hours, [^3H]-thymidine (0.5 μCi/well) was added to cells. Cells were treated with TCA (20% for 15 minutes, twice with 10% for 3 minutes, and ethanol for 3 minutes). Acid-insoluble material was dissolved in 1 N NaOH, then neutralized with 1 N HCl. Radioactivity was measured by liquid scintillation counting. Data were expressed as radioactivity (% of control). The control was cells treated with vehicle (0.1% ethanol). […] Anti-proliferative effects of BCA11 and calcitriol were additive.

[3] = tested on: BT20 cells; test: Effect of dietary vitamin D on BT20 tumor growth; assay type: in vivo, athymic nude mice; conditions: for tumor weight: day 69
Protocol: BT20 cells (estrogen receptor-negative, human breast cancer cells; 5 million) were injected with Matrigel (10 mg/ml) into each flank of 10 weeks old female athymic nude mice. Tumor growth was monitored for six weeks on a low-calcium diet (0.4% Ca, 0.3% P and no vitamin D; Harlan Teklad). Then, mice bearing equal number and size tumors were randomly selected for treatment groups. One group continued on the low-calcium diet (serum 25-OH-D3 approx. 2 pg/ml) and received vehicle and the other group was placed on a normal diet (1.19% Ca, 0.86% P, and 6.6 mg/kg vitamin D; serum 25-OH-D3 approx. 18 pg/ml) and received vehicle.
Six weeks old female athymic mice were placed on diets of 0.5% Ca, 0.3% P, and either no vitamin D (serum 25-OH-D3 approx. 3 pg/ml; serum calcitriol approx. 30 pg/ml) or vitamin D (4 mg/kg (serum 25-OH-D3 approx. 34 pg/ml; serum calcitriol approx. […]) or 40 mg/kg (serum 25-OH-D3 approx. 73 pg/ml; serum calcitriol approx. 70 pg/ml)). Two weeks later, BT20 cells (5 million) were injected with Matrigel (10 mg/ml) into each flank and tumor growth was monitored in the absence of drug treatment.

[4] = tested on: BT20 cells; test: Growth of estrogen receptor-negative breast cancer in vivo; parameters: species or system athymic nude mice
Protocol: BT20 cells (estrogen receptor-negative, human breast cancer cells; 5 million) were injected with Matrigel (10 mg/ml) into each flank of 10 weeks old female athymic nude mice. Mice were maintained on a low-calcium diet (0.4% Ca, 0.3% P and no vitamin D; Harlan Teklad). Then, mice bearing equal number and size tumors were randomly selected for treatment groups. […] Treatment groups received 1.5 μg/kg BCA11 at approximately 21 days after injection of cells. Control groups received vehicle (25% propylene glycol and 75% saline). Drugs or vehicle were injected i.p. three times per week. Tumor growth was monitored biweekly with caliper measurements. […] (Biochem. Pharmacol. (1992)). […] After about four weeks, the mice were divided into treatment and control groups. […] Control groups received vehicle (25% propylene glycol and 75% saline). Drugs or vehicle were injected i.p. three times per week. Tumor growth was monitored biweekly with caliper measurements. Tumor volumes were calculated as indicated in Example 7.

[5] = Serum calcium and toxicity with chronic in vivo administration; parameters: species or system athymic nude mice; conditions: 1 μg/kg alternate days, 5 weeks, FIG. 7
Protocol: MCF-7 cells were injected with Matrigel (10 mg/ml) into 7 weeks old female athymic nude mice. Tumors were grown in the presence of implanted estrogen pellets (0.72 mg pellets). After four weeks inoculation, mice were treated for 5 weeks with hormones or vehicle (propylene glycol) control on alternate days. BCA11 and EB1089 were added at a concentration of 1 μg/kg. Serum was drawn throughout hormone treatment from the orbital vein of the mice and assayed by the Department of Clinic Chemistry, National Institutes of Health, by methods well-known in the art. […] Similar results were obtained from multiple blood samples taken from the phase II study. Calcium and phosphorous levels were assayed by Ani Lytics and fell within normal ranges. In addition, alkaline phosphatase, albumin, bilirubin and creatinine levels were measured in both phases.

For CC/C(=C(\c1ccccc1)c1ccc(OCCN(C)C)cc1)c1ccccc1 [Tamoxifen], the “inhibition of tumor growth (tumor volume) compared to control” value [1] was “about 50%”.
In the case of C=C1/C(=C\C=C2/CCC[C@]3(C)[C@@H]([C@H](C)CCCC(C)(C)O)CC[C@@H]23)C[C@@H](O)C[C@@H]1O [Calcitriol, 1,25-dihydroxycholecalciferol], the “[3H]-Thymidine Incorporation MCF-7 cells (% of Control)” value ([2]; 10 nM of each hormone) is reported as 67 ± 8 % of Control and the “effect on MCF-7 cell proliferation ([3H]-thymidine incorporation)” value [2] is reported as “stimulate cell growth”.
With vitamin D the tumor volume ([3]; diet with 4 mg/kg vitamin D, 36 days after injection of BT20 cells) was “approximately 12.5 mm^3”, the tumor weight ([3]; diet with 4 mg/kg vitamin D) was “approximately 0.3 g” and the tumor volume ([3]; diet with 40 mg/kg vitamin D, 36 days after injection of BT20 cells) was “approximately 9.5 mm^3”. For the same compound, the tumor weight ([3]; diet with 40 mg/kg vitamin D) was “approximately 0.19 g” and the tumor volume ([3]; normal diet with 6.6 mg/kg vitamin D, 41 days after inoculation) was “approx. 37 mm^3”.
With C=C1/C(=C\C=C2/CCC[C@]3(C)[C@@H]([C@H](C)/C=C/C=C/C(O)(CC)CC)CC[C@@H]23)C[C@@H](O)C[C@@H]1O [EB1089] the tumor weight ([4]; 1.0 μg/kg, day 69) was about 0.07 g, the tumor volume ([4]; i.p. three times per week, around 60 days of treatment, 4 mg/kg vitamin D diet) was “approximately 14 mm^3” and the serum calcium levels [5] was “fell within the normal range of physiological calcium”.
With C[C@]12CC[C@@H]3c4ccc(O)cc4CC[C@H]3[C@@H]1CC[C@@H]2O [17β Estradiol] the “effect on MCF-7 cell proliferation ([3H]-thymidine incorporation)” value [2] was “stimulate cell growth”.
